# System: tomato early blight fungi (Alternaria solani; QoI resistant strain, cytochrome b phenylalanine 129 mutated to leucine)
# Assay type: in vivo
# Details: 200 ppm foliar spray, inoculation after 1 day; tomato cv PATIO
structure (smiles),measurement,value
CCC(=NN=C(C)c1ccc2ccccc2c1)OCc1c(C)cccc1-n1nnn(C)c1=O [cf1],lesion area compared to the lesion area in an untreated tomato,≥ 70%

# Reference: patent publication US11225470B2, “Tetrazolinone compounds and its use as pest control agents” (SUMITOMO CHEMICAL COMPANY, LIMITED, priority 2016, dated 2022)
